System: hypertensive subjects
Assay: 24-hour ambulatory blood pressure monitoring (ABPM), incl. nighttime dip
Format: in vivo, human
Method: Ambulatory blood pressure monitoring was accomplished with an ambulatory blood pressure monitoring device that consists of a blood pressure cuff worn on a subject's arm attached to a small recording device that is typically attached to the subject's belt or waistband.
The ABPM device is worn for 24 hours. Throughout that period, the device records the subject's blood pressure at regular intervals, during the subject's routine daily activities and while they are sleeping. The ABPM thus provides a complete record of the subject's blood pressure over a 24-hour period.
24-hour ABPM was measured in the clinic at baseline and Study Week 7. If, for any reason, the ABPM procedure was deemed a failure at the end of Study Week 7, it may have been repeated at Study Week 8 and therefore no imputation was employed regardless of use of rescue medications. Additionally, ABPM was also collected at the end of Study Week 4 in Part 2. If a repeat test was performed, it supersedes the original test results for that visit.
Specific derived variables based on ABPM measurements include mean 24-hour, mean Daytime, and mean Nighttime of SBP, DBP, and heart rate.
Change from baseline to Week 7 in 24-hour mean SBP (and DBP) based on ABPM will be analyzed using an ANCOVA with a term for treatment group and a baseline mean 24-hour value as a covariate.
The nighttime dip is defined as
100%×(mean daytime SBP−mean nighttime SBP)/mean daytime SBP
It is expressed as a percentage and is summarized by treatment group and visit using descriptive statistics. In addition, the number and percentage of subjects with nighttime dip in each of the dipper categories (Bloomfield & Park, 2015) is presented by treatment group and visit. The categories are: • (a) <10% • (b) 10-20% inclusive • (c) >20%
Secondary endpoints of this study were: • (a) Change in 24-hour ambulatory blood pressure monitoring (ABPM) parameters (systolic and diastolic) from baseline to the end of Study Week 7. • (b) Change in office-measured SBP from baseline to the end of Study Weeks 1, 2, 3, 4, 5, 6, and 7. • (c) Change in office-measured diastolic blood pressure (DBP) from baseline to the end of Study Weeks 1, 2, 3, 4, 5, 6, 7, and 8. • (d) Proportion of subjects who achieve office-measured BP of ≤130/80 mm Hg by the end of Study Week 8.

[1] = 50 mg QD, End of Treatment, Part 1, FAS post-hoc
[2] = 100 mg QD Part 2, End of Treatment, FAS post-hoc
[3] = 100 mg QD, End of Treatment, Part 1, FAS post-hoc

Structure (SMILES): CC(=O)N[C@H]1CC[C@H](NC(=O)CN2CCN(c3nncc(-c4ccc(C)cc4)n3)CC2)CC1 [Compound A HBr]
- LSM Δ with Placebo, 24-hr Mean MAP (ABPM, ANCOVA) [1]: −3.48 mmHg
- LSM Δ with Placebo, 24-hr SBP (ABPM, ANCOVA) [1]: −3.85 mmHg
- LSM Δ with Placebo, Daytime Mean DBP (ABPM, ANCOVA) [1]: −4.18 mmHg
- LSM Δ with Placebo, Daytime Mean SBP (ABPM, ANCOVA) [1]: −6.85 mmHg
- LSM Δ with Placebo, Mean Central DBP (ABPM, ANCOVA) [1]: −2.58 mmHg
- LSM Δ with Placebo, Mean Central Mean BP (ABPM, ANCOVA) [1]: −4.11 mmHg
- LSM Δ with Placebo, Mean Central SBP (ABPM, ANCOVA) [1]: −5.46 mmHg
- LSM Δ with Placebo, Nighttime Mean DBP (ABPM, ANCOVA) [1]: 0.15 mmHg
- LSM Δ with Placebo, Nighttime Mean SBP (ABPM, ANCOVA) [1]: 2.37 mmHg
- 24-hr Mean DBP (ABPM), Mean (SD) (50 mg QD, EoT, Part 1, FAS): 77.75 (9.33) mmHg
- 24-hr Mean MAP (ABPM), Mean (SD) (50 mg QD, EoT, Part 1, FAS): 104.55 (11.74) mmHg
- 24-hr Mean SBP (ABPM), Mean (SD) (50 mg QD, EoT, Part 1, FAS): 131.36 (15.58) mmHg
- Daytime Mean DBP (ABPM), Mean (SD) (50 mg QD, EoT, Part 1, FAS): 79.50 (9.08) mmHg
- Daytime Mean SBP (ABPM), Mean (SD) (50 mg QD, EoT, Part 1, FAS): 132.32 (14.36) mmHg
- Nighttime Mean DBP (ABPM), Mean (SD) (50 mg QD, EoT, Part 1, FAS): 74.25 (13.08) mmHg
- Nighttime Mean SBP (ABPM), Mean (SD) (50 mg QD, EoT, Part 1, FAS): 129.54 (21.68) mmHg
- Subjects with nighttime dip 10-20% in 24-hour systolic ABPM (50 mg QD, EoT, Part 1, FAS): 6 (21.4) n (%)
- Subjects with nighttime dip <10% in 24-hour systolic ABPM (50 mg QD, EoT, Part 1, FAS): 22 (78.6) n (%)
- Subjects with nighttime dip >20% in 24-hour systolic ABPM (50 mg QD, EoT, Part 1, FAS): 0 n (%)
- 24-hr Mean DBP (ABPM) CFB to EoT, Mean (SD) (50 mg QD, Part 1, FAS): −3.00 (8.52) mmHg
- 24-hr Mean MAP (ABPM) CFB to EoT, Mean (SD) (50 mg QD, Part 1, FAS): −2.39 (11.80) mmHg
- 24-hr Mean SBP (ABPM) CFB to EoT, Mean (SD) (50 mg QD, Part 1, FAS): −1.79 (15.82) mmHg
- Daytime Mean DBP (ABPM) CFB to EoT, Mean (SD) (50 mg QD, Part 1, FAS): −4.11 (6.81) mmHg
- Daytime Mean SBP (ABPM) CFB to EoT, Mean (SD) (50 mg QD, Part 1, FAS): −4.54 (13.59) mmHg
- Nighttime Mean DBP (ABPM) CFB to EoT, Mean (SD) (50 mg QD, Part 1, FAS): 0.00 (12.34) mmHg
- Nighttime Mean SBP (ABPM) CFB to EoT, Mean (SD) (50 mg QD, Part 1, FAS): 2.44 (22.25) mmHg
- LSM Δ with 100 mg QD Part 1, 24-hr Mean AP (ABPM, ANCOVA) [2]: 3.33 mmHg
- LSM Δ with 100 mg QD Part 1, 24-hr Mean DBP (ABPM, ANCOVA) [2]: 4.26 mmHg
- LSM Δ with 100 mg QD Part 1, 24-hr Mean SBP (ABPM, ANCOVA) [2]: 4.13 mmHg
- LSM Δ with 100 mg QD Part 1, Daytime Mean DBP (ABPM, ANCOVA) [2]: 3.92 mmHg
- LSM Δ with 100 mg QD Part 1, Daytime Mean SBP (ABPM, ANCOVA) [2]: 1.64 mmHg
- LSM Δ with 100 mg QD Part 1, Mean Central DBP (ABPM, ANCOVA) [2]: 4.53 mmHg
- LSM Δ with 100 mg QD Part 1, Mean Central Mean BP (ABPM, ANCOVA) [2]: 3.98 mmHg
- LSM Δ with 100 mg QD Part 1, Mean Central SBP (ABPM, ANCOVA) [2]: 4.68 mmHg
- LSM Δ with 100 mg QD Part 1, Nighttime Mean DBP (ABPM, ANCOVA) [2]: 5.04 mmHg
- LSM Δ with 100 mg QD Part 1, Nighttime Mean SBP (ABPM, ANCOVA) [2]: 8.91 mmHg
- LSM Δ with Placebo, 24-hr DBP (ABPM, ANCOVA) [3]: −5.23 mmHg
- LSM Δ with Placebo, 24-hr Mean MAP (ABPM, ANCOVA) [3]: −5.45 mmHg
- LSM Δ with Placebo, 24-hr SBP (ABPM, ANCOVA) [3]: −5.33 mmHg
- LSM Δ with Placebo, Daytime Mean DBP (ABPM, ANCOVA) [3]: −4.98 mmHg
- LSM Δ with Placebo, Daytime Mean SBP (ABPM, ANCOVA) [3]: −4.12 mmHg
- LSM Δ with Placebo, Mean Central DBP (ABPM, ANCOVA) [3]: −7.01 mmHg
- LSM Δ with Placebo, Mean Central Mean BP (ABPM, ANCOVA) [3]: −7.77 mmHg
- LSM Δ with Placebo, Mean Central SBP (ABPM, ANCOVA) [3]: −7.79 mmHg
- LSM Δ with Placebo, Nighttime Mean DBP (ABPM, ANCOVA) [3]: −5.68 mmHg
- LSM Δ with Placebo, Nighttime Mean SBP (ABPM, ANCOVA) [3]: −7.36 mmHg
- 24-hr Mean DBP (ABPM), Mean (SD) (100 mg QD, EoT, Part 1, FAS): 75.92 (8.42) mmHg
- 24-hr Mean MAP (ABPM), Mean (SD) (100 mg QD, EoT, Part 1, FAS): 105.48 (8.26) mmHg
- 24-hr Mean SBP (ABPM), Mean (SD) (100 mg QD, EoT, Part 1, FAS): 135.04 (11.25) mmHg
- Daytime Mean DBP (ABPM), Mean (SD) (100 mg QD, EoT, Part 1, FAS): 78.79 (9.44) mmHg
- Daytime Mean SBP (ABPM), Mean (SD) (100 mg QD, EoT, Part 1, FAS): 139.42 (11.65) mmHg
- Nighttime Mean DBP (ABPM), Mean (SD) (100 mg QD, EoT, Part 1, FAS): 69.00 (9.04) mmHg
- Nighttime Mean SBP (ABPM), Mean (SD) (100 mg QD, EoT, Part 1, FAS): 124.50 (14.93) mmHg
- Subjects with nighttime dip 10-20% in 24-hour systolic ABPM (100 mg QD, EoT, Part 1, FAS): 11 (45.8) n (%)
- Subjects with nighttime dip <10% in 24-hour systolic ABPM (100 mg QD, EoT, Part 1, FAS): 11 (45.8) n (%)
- Subjects with nighttime dip >20% in 24-hour systolic ABPM (100 mg QD, EoT, Part 1, FAS): 2 (8.3) n (%)
- 24-hr Mean DBP (ABPM), Mean (100 mg QD, EoT, Part 2, FAS): 77.07 mmHg
- 24-hr Mean MAP (ABPM), Mean (100 mg QD, EoT, Part 2, FAS): 104.83 mmHg
- 24-hr Mean SBP (ABPM), Mean (100 mg QD, EoT, Part 2, FAS): 132.59 mmHg
- Daytime Mean DBP (ABPM), Mean (100 mg QD, EoT, Part 2, FAS): 79.41 mmHg
- Daytime Mean SBP (ABPM), Mean (100 mg QD, EoT, Part 2, FAS): 135.22 mmHg
- Nighttime Mean DBP (ABPM), Mean (100 mg QD, EoT, Part 2, FAS): 71.85 mmHg
- Nighttime Mean SBP (ABPM), Mean (100 mg QD, EoT, Part 2, FAS): 126.04 mmHg
- 24-hr Mean DBP (ABPM) CFB to EoT, Mean (SD) (100 mg QD, Part 1, FAS): −5.92 (8.44) mmHg
- 24-hr Mean MAP (ABPM) CFB to EoT, Mean (SD) (100 mg QD, Part 1, FAS): −7.40 (10.04) mmHg
- 24-hr Mean SBP (ABPM) CFB to EoT, Mean (SD) (100 mg QD, Part 1, FAS): −8.88 (11.90) mmHg
- Daytime Mean DBP (ABPM) CFB to EoT, Mean (SD) (100 mg QD, Part 1, FAS): −4.96 (8.74) mmHg
- Daytime Mean SBP (ABPM) CFB to EoT, Mean (SD) (100 mg QD, Part 1, FAS): −7.08 (12.60) mmHg
- Nighttime Mean DBP (ABPM) CFB to EoT, Mean (SD) (100 mg QD, Part 1, FAS): −6.57 (9.97) mmHg
- Nighttime Mean SBP (ABPM) CFB to EoT, Mean (SD) (100 mg QD, Part 1, FAS): −11.48 (13.87) mmHg
- 24-hr Mean DBP (ABPM) CFB to EoT, Mean (100 mg QD, Part 2, FAS): 1.33 mmHg
- 24-hr Mean MAP (ABPM) CFB to EoT, Mean (100 mg QD, Part 2, FAS): 1.81 mmHg
- 24-hr Mean SBP (ABPM) CFB to EoT, Mean (100 mg QD, Part 2, FAS): 2.30 mmHg
- Daytime Mean DBP (ABPM) CFB to EoT, Mean (100 mg QD, Part 2, FAS): 1.67 mmHg
- Daytime Mean SBP (ABPM) CFB to EoT, Mean (100 mg QD, Part 2, FAS): 2.41 mmHg
- Nighttime Mean DBP (ABPM) CFB to EoT, Mean (100 mg QD, Part 2, FAS): 1.04 mmHg
- Nighttime Mean SBP (ABPM) CFB to EoT, Mean (100 mg QD, Part 2, FAS): 1.52 mmHg
- Change in BP, ABPM (night) BPsys, Mean (sem) (100 mg QD, Week 8, FAS): −11.5 (2.5) mmHg
- Proportion of Subjects with Nighttime Dip in 24-hour Systolic Ambulatory Blood Pressure 10-20% (Part 2, 100 mg QD, EoT): (33.3) %
- Proportion of Subjects with Nighttime Dip in 24-hour Systolic Ambulatory Blood Pressure <10% (Part 2, 100 mg QD, EoT): (66.7) %
- Proportion of Subjects with Nighttime Dip in 24-hour Systolic Ambulatory Blood Pressure 10-20% (Part 2, 100 mg QD, Week 4): (24.0) %
- Proportion of Subjects with Nighttime Dip in 24-hour Systolic Ambulatory Blood Pressure <10% (Part 2, 100 mg QD, Week 4): (72.0) %
- Proportion of Subjects with Nighttime Dip in 24-hour Systolic Ambulatory Blood Pressure >20% (Part 2, 100 mg QD, Week 4): (4.0) %

Source: patent US20260053811A1, “METHODS OF TREATING HYPERTENSION IN OBESE SUBJECTS” (Mineralys Therapeutics, Inc., priority 2022, published 2026)
